pEC50: −log10 of the molar value. Activity calls are given as the source filed them. The rule behind the calls is not given here.
Assays:
[1] = Metabolic stability in rat liver microsomes assessed as intrinsic clearance at 1 uM preincubated for 60 mins followed by NADPH addition and measured after 60 mins by LC-MS/MS analysis; assay type: ADME, Microsome; conditions: time 120 min, read-out: CLH
[2] = target: G-protein coupled receptor 55 (Homo sapiens, UniProt Q9Y2T6); assay: Agonist activity at human GPR55 expressed in human HEK293 cells assessed as effect on calcium flux incubated for 5 mins by FLIPR analysis; assay type: functional, cell-based
[3] = Agonist activity at rat GPR55 expressed in human HEK293 cells assessed as effect on calcium flux incubated for 5 mins by FLIPR analysis; conditions: HEK293, 5 min
Rattus norvegicus = assay: Effect on haloperidol-induced […] activity in Sprague-Dawley rat model assessed as locomotor activity at 3 mg/kg, po and measured after 60 mins; assay type: functional, organism-based
[4] = Toxicity in Wistar rat Striatal neuron assessed as cell viability at 1 uM; assay type: cell-based
Striatal neuron = assay: Neurophysiological effect on Wistar rat Striatal neuron assessed as decrease in potential firing frequency at 1 uM and measured after 3 mins by Whole-cell patch clamp assay; assay type: functional, cell-based

Chain of G-protein coupled receptor 55 (Q9Y2T6 whole entry): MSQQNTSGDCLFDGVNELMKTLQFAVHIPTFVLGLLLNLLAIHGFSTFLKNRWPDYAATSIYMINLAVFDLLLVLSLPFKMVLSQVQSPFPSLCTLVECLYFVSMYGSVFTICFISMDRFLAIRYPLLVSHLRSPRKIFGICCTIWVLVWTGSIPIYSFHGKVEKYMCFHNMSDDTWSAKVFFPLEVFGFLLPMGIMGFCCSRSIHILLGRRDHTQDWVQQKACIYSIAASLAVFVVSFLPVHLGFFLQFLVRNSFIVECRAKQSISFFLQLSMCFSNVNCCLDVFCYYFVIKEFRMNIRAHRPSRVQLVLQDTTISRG

| Compound | microsomal CLint at 1 µM [1] | pEC50 [2] | pEC50 [3] | further results |
| --- | --- | --- | --- | --- |
| C[C@@H](Nc1ccc(-c2cncc(S(C)(=O)=O)c2)cn1)c1ccc(F)cc1 | 3.8 µL/min/mg | 7.07 | 6.15 | – |
| C[C@@H](Nc1ncc(-c2cncc(CC(F)(F)F)c2)nn1)c1ccc(F)cc1 | 6.4 µL/min/mg | – | – | – |
| C[C@@H](Nc1ccc(-c2ccc3oc(=O)[nH]c3c2)cn1)c1ccc(F)cc1 | – | 6.24 | 5.62 | – |
| CCc1cncc(-c2ccc(N[C@H](C)c3ccc(F)cc3)nc2)c1 | 48 µL/min/mg | – | – | – |
| CCc1cncc(-c2cnc(N[C@H](C)c3ccc(F)cc3)cn2)c1 | 78 µL/min/mg | 8.52 | 7.49 | – |
| C[C@@H](Nc1ccc(-c2cnn(C)c2)cn1)c1ccc(F)cc1 | – | 6.37 | 5.45 | – |
| C[C@@H](Nc1ccc(-c2cncc(C3CC3)c2)cn1)c1ccc(F)cc1 | 10 µL/min/mg | 7.86 | 6.29 | – |
| C[C@@H](Nc1ccc(-c2cncc(C(F)(F)F)c2)cn1)c1ccc(F)cc1 | 5.2 µL/min/mg | – | – | – |
| Cc1cncc(-c2ccc(N[C@H](C)c3ccc(F)cc3)nc2)c1 | 234 µL/min/mg | – | – | – |
| CCn1c(=O)c2c(nc(/C=C/c3ccc(OC)c(OC)c3)n2C)n(CC)c1=O | – | – | – | Activity (Rattus norvegicus): Active |
| C[C@@H](Nc1ccc(-c2ccc3oc(=O)n(C)c3c2)cn1)c1ccc(F)cc1 | 3.9 µL/min/mg | – | – | – |
| C[C@@H](Nc1ccc(-c2cncc(S(C)(=N)=O)c2)cn1)c1ccc(F)cc1 (stereo not given in full) | 2 µL/min/mg | – | – | – |
| C[C@@H](Nc1cnc(-c2cncc(CC(F)F)c2)cn1)c1ccc(F)cc1 | 16 µL/min/mg | 9.36 | 8.38 | Activity [4]: Non-Toxic; Activity (Striatal neuron): Active |
